Measured values published in patent US20100216875A1, “METHODS OF TREATING ALZHEIMER'S DISEASE” (priority 2006, published 2010).

Tests used:
[1] = system: transgenic APPIn mice (London mutant human APP); assay: Morris water maze test in transgenic APPIn mice; format: in vivo, mouse; details: icv 0.015 mg/kg/day, 28 days, p<0.005
Experimental: Transgenic mice expressing human APP containing the London mutation (APPIn) mimic AD function and pathology in that they are cognitively deficient, have brain amyloid plaque and elevated Aβ (8). […] CA074Me or E64d were administered by icy infusion in brains (0.015 mg/kg/day) for 28 days (8 animals per treatment group).
Thus, irreversible cathepsin B inhibitors are efficacious in this AD animal model, causing an 80% improvement in cognitive function and a 50% decrease in amyloid plaque load and brain Aβ. Thus, these tests indicate that Cathepsin B inhibitors are effective at reversing the cognitive deficit caused by AD
(§1) The status of memory impairment in the APPIn or APPswe/In mice with and without administration of select compounds was assessed by the Morris water maze test. The water maze test is widely used in mouse AD animal models to evaluate cognitive impairment in such AD models. Water maze tests were conducted as previously described (87-89).
Drug-treated and vehicle-treated mice were tested in the Morris water maze test. Mice were trained in a 1.2 meter open field water maze. The pool was filled to a depth of 30 cm with water and maintained at 25° C. The escape platform (10 cm square) was placed 1 cm below the surface of the water. During the trials, the platform was removed from the pool. […] These trials were not recorded since they were for training purposes only. […]

APPswe/In mice [2] = assay: amyloid load, Aβ, CTFβ and sAPPα in APPswe/In mice; format: in vivo, mouse; details: Mean + % SEM
Experimental: (§2) Cathepsin B inhibitors were also evaluated in another transgenic mouse that expressed human APP containing both the Swedish mutant β-secretase and the London γ-secretase site (APPswe/In).
The mouse model of AD expressing human APP containing the Swe mutant β-secretase site and the London mutation (APPswe/In) also overproduce Aβ, and develop neuropathology and behavior that mimic AD. APPswe/In was generated by site-directed mutagenesis at the β-secretase site of the APPIn to convert Lys-Met to the mutant Asn-Leu. Both APPswe/In and APPIn mouse strains were created in a C57BL/6 mouse background using the Thy-1.2 expression cassette driven by the Thy-1 promoter containing an SV40 polyadenylation site. The APPswe/In mice differ from the APPIn in that APPswe/In mice contain the Swedish mutant β-secretase site rather than the wt β-secretase site found in APPIn.
Direct icy infusion into the brain was the first route of administration to be tested to establish the effectiveness of reversible inhibitors in the brain to provide cognitive improvement, and reduction in brain Aβ peptides and amyloid plaques. Icy infusion was performed as described above for the irreversible inhibitors with use of the Alzet minipump. The initial dose utilized was the same dosage used for E64d and CA074Me in the APPIn mice or APPswe/In mice Administration of these compounds began at approximately 1-2 months of age and infusion was conducted for periods of 1, 2, 4, and 8 months (or other time periods). Administration of the select reversible compounds by direct icy infusion into mouse brains was conducted initially at 0.025 μl/hr of 1 mg/ml, other doses may be examined based on results with the first dose. Each time point was conducted with about 8-10 animals and 8-10 normal control animals (age-matched) (or greater number of mice per treatment group, if necessary, for appropriate statistical evaluation). At the end of each of these infusion periods, cognitive testing and assessment of Aβ peptide levels with plaque pathology was evaluated. At each of these time points, mice were tested for cognition, and then sacrificed for evaluation of Aβ and neuropathology in the brain
After behavioral testing was completed, the mice were sacrificed for analyses of Aβ40 and Aβ42 peptide levels, and neuropathology. One half brain (one hemisphere) was utilized to prepare brain extracts for measurement of Aβ40 and Aβ42 levels by ELISA assays, and the other half brain was used for neuropathological evaluation. Procedures for preparation of brain extracts and ELISA assays for Aβ peptides are those used for analyses of guinea pig brains
Aβ-related neuropathology was assessed in cortex and hippocampus of brains. The relative extent of Aβ immunoreactivity in neurons and glial cells was assessed. Immunostaining for Aβ was conducted as described previously (58) Aβ-related neuropathology was assessed in cortex and hippocampus of brains, as well as other regions of the brain as controls. Brain tissue was fixed in 4% paraformaldehyde overnight, and then processed to paraffin. Serial sections were obtained, deparaffinized and washed in TBS buffer. Each section was blocked with appropriate normal serum (mouse or rabbit), and subjected to primary anti-Aβ antibody for detection of amyloid deposits. Sections were then stained with DAB ([…]) with the Vector ABC Elite kit (Vector Laboratories). Amyloid areas were imaged with microscopic computer-assisted analysis system using the NIH Image Analysis Software.

APPswe/In mice [3] = assay: Morris water maze test in APPswe/In mice; format: in vivo, mouse; details: Mean + % SEM; for Latency Period: same treatment as APPIn mice
Experimental: as §2, §1
Drug-treated and vehicle-treated mice were tested in the Morris water maze test. Mice were trained in a 1.2 meter open field water maze. The pool was filled to a depth of 30 cm with water and maintained at 25° C. The escape platform (10 cm square) was placed 1 cm below the surface of the water. During the trials, the platform was removed from the pool. The cued test was carried out in the pool surrounded with white curtains to hide any extra-maze cues. Aβ animals underwent non-spatial pretraining (NSP) for three consecutive days. These trials were to prepare the animals for the final behavioral test to determine whether there was sufficient retention of memory to find the platform. These trials were not recorded since they were for training purposes only. For the training and learning studies, the curtains were removed to extra maze cues to allow identification of animals with swimming impairments. On day 1, the mice were placed on the hidden platform for 20 seconds (trial 1), for trials 2-3 animals were released in the water at a distance of 10 cm from the cued-platform or hidden platform (trial 4) and allowed to swim to the platform. On the second day of trails, the hidden platform was moved randomly between the center of the pool and the center of each quadrant. The animals were released into the pool, randomly facing the wall and were allowed 60 seconds to reach the platform (3 trials). In the third trial, animals were given three trials, two with a hidden platform and one with a cued platform. Two days following the NSP, the animals were subjected to final behavioral trials (Morris water maze test). For these trials (3 per animal), the platform was placed in the center of one quadrant of the pool and the animals were released facing the wall in a random fashion. Each animal was allowed to find the platform or swim for 60 seconds (latency period, the time it takes to find the platform). Aβ animals were tested within 4-6 hours of dosing and were randomly selected for testing by an operator blinded to the test group.

[4] = system: β-secretase activity as measured by the APP-derived CTFβ fragment; assay: guinea pig brain CTFβ (β-secretase activity) after icv infusion; format: in vivo; details: 0.15 mg/kg/day infused for 7 days; western blot
Experimental: To better evaluate the effects of CA074Me on β-secretase activity, relative brain levels of CTRβ were assessed by western blots. The CTRβ fragment results from processing of APP at the β-secretase site, which produces the C-terminal β-secretase fragment (CTFβ) of 12 kDA on SDS-PAGE gels.
Brains from animals described in relation to FIG. 10 were extracted and analyzed for CTFβ by […].
Cathepsin B inhibitors were administered directly into the brain by icy infusion with minipumps in time course studies at different doses. Guinea pigs were infused with compounds using Alzet pumps (2.5 μl/hr, with compounds at 1 mg/ml in saline) for 7 and 30 days, and other times. This initial dose of compound was selected because E64d and CA074Me are effective at this dose. Each treatment group consisted of eight to ten guinea pigs, including the vehicle control group.

[5] = system: primary neuronal chromaffin cells; details: cited from earlier work

Structure (SMILES) | average latency period (Morris water maze) vs control [1] | Amyloid load (APPswe/In mice [2]) | Aβ40 (APPswe/In mice [2]) | Aβ42 (APPswe/In mice [2]) | CTFβ (APPswe/In mice [2]) | sAPPα (APPswe/In mice [2]) | Distance Traveled (APPswe/In mice [3]) | Latency Period (APPswe/In mice [3]) | decrease in the amount of brain CTFβ [4] [%] | CTFβ production in primary chromaffin cell cultures [5]
CCOC(=O)[C@H]1O[C@@H]1C(=O)N[C@@H](CC(C)C)C(=O)NCCC(C)C [E64d] | significantly lower average latency period | 1.06 + 4% | 92 + 7% | 101 + 3% | 100 + 3% | 98 + 3% | 270 + 12% | 40 + 10% |  | 
CCCNC(=O)[C@H]1O[C@@H]1C(=O)N[C@H](C(=O)N1CCC[C@H]1C(=O)OC)[C@@H](C)CC [CA074Me] | significantly lower average latency period | 1.07 + 4% | 91 + 4% | 97 + 3% | 97 + 3% | 101 + 4% | 246 + 13% | 37 + 12% | 50 | reduced CTFβ production
